Key:
Assay type in all cases: cell-based
human P2X2/3 receptors = molecular target: T1, human P2X2/3 receptors (Homo sapiens, UniProt P56373+Q9UBL9); assay: Intracellular calcium measurement, antagonist activity at human P2X2/3 receptors (hP2X23 1321N1), Fluo8; conditions: for IC50: column 4); 1321N1 cells, human P2X2/3, Fluo8, agonist ATP at EC50; read-out: 4) hP2X2/3 IC50 [nM] (1321N1); for hP2X23/hP2X3* Selectivity (1321N1): ratio of column 4) hP2X2/3 to column 3) hP2X3, 1321N1
T1 construct: expressed in transfected cells; host or cells: human astrocytoma 1321N1 (1312N1 [sic])
T1 sequence (P56373 1-397): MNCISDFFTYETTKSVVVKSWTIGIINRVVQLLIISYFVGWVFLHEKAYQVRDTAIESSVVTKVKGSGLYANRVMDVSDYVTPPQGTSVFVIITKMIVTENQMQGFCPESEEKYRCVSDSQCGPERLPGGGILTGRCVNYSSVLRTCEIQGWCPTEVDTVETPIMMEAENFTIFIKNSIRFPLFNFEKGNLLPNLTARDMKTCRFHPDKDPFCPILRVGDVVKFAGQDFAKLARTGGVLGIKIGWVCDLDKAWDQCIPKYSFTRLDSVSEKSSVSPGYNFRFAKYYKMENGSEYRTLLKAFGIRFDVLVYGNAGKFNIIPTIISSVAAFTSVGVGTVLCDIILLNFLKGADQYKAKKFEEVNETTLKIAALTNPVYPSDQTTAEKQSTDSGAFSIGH
T1 sequence (Q9UBL9 1-471): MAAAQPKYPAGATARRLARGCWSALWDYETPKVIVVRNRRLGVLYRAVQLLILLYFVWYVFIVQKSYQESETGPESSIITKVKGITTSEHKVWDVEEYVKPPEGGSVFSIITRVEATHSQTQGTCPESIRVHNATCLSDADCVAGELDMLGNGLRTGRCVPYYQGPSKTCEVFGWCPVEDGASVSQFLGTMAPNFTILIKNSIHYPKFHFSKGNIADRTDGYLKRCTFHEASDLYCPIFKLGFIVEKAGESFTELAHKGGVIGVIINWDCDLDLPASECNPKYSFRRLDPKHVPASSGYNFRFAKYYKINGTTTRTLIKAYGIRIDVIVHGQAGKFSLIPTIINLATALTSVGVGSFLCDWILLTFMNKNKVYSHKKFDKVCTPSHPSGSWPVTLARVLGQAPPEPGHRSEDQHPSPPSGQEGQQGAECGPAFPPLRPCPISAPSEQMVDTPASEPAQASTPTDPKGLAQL
Procedure, shortened: (§1)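 Inhibition of ATP-triggered Ca2+ transients is measured in 1321N1 cells expressing P2X3 homotrimers or P2X2/3 heterotrimers.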

human P2X3 receptor [1] = molecular target: T2, human P2X3 receptor (Homo sapiens, UniProt P56373); assay: Intracellular calcium measurement to assess antagonist activity at human P2X3 receptors (hP2X3 FLIPR); set-up: expressed in transfected cells; host or cells: human astrocytoma 1321N1 (1312N1 [sic]); conditions: head prints (1321N1); read-out: 1) hP2X3 IC50 [nM] (1321N1)
T2 sequence (P56373 1-397): T1 sequence (P56373 1-397)
Procedure: 1) Intracellular Calcium Measurement to Assess Antagonist Activity at Human P2X3 Receptors (hP2X3 FLIPR)
A fluorescent imaging plate reader (FLEX/FLIPR station; Molecular Devices) was used to monitor intracellular calcium levels using the calcium-chelating dye Fluo-4 (Molecular Probes). The excitation and emission wavelengths used to monitor fluorescence were 470-495 nm and 515-575 nm, respectively. The human astrocytoma […] cells expressing purinergic receptors P2X3 (human) were plated at a density of 15,000 cells/well in collagen—coated 384-well plates approximately 20 hours before beginning the assay. […] The dye supernatant was removed and replaced with 45 μl probenecid buffer (Hank's balanced salt solution, 20 mM HEPES, 0.5 mM CaCl2, 0.5 mM MgCl2, 0.1% BSA, 5 mM probenecid, 10 mM D-glucose monohydrate, pH=7.4). The test compounds were added in a volume of 5 μl and allowed to incubate for 30 min at 37° C. The final assay DMSO concentration is 1%. […] The fluorescence was measured for an interval of 90 sec at 2 sec intervals and analyzed based on the increase in peak relative fluorescence units (RFU) compared to the basal fluorescence. Peak fluorescence was used to determine the response to agonist obtained at each concentration of test compound by the following equation: Response=100*(RFU(test compound)−RFU(control))/(RFU(DMSO)−RFU(control))
The Examples were tested in triplicates per plate and mean values were plotted in Excel XLFit to determine IC50 values at the human P2X3 and human P2X2/3 receptors, percentage of maximal inhibition and the Hill coefficients.

human P2X3 receptor [2] = molecular target: T2, human P2X3 receptor; assay: Intracellular calcium measurement to assess antagonist activity at human P2X3 receptors (hP2X3 CHO), photina luminescence; set-up: expressed in transfected cells; host or cells: Chinese hamster ovary (CHO) cells; conditions: column 2), CHO cells, agonist α,β-methylene-ATP at EC50
Procedure, shortened: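 CHO cells stably expressing human P2X3 and mitochondrial photina, plated the day before at 30 °C, then loaded 3 h at 37 °C in 2 mM Ca-tyrode buffer with 5 μg/ml coelenterazine. Agonist-evoked calcium luminescence read immediately; inhibition seen as signal decrease.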

human P2X3 receptor [3] = molecular target: T2, human P2X3 receptor; assay: Intracellular calcium measurement, antagonist activity at human P2X3 receptors (hP2X3 1321N1), Fluo8; set-up: expressed in transfected cells; host or cells: human astrocytoma 1321N1 (1312N1 [sic]); conditions: column 3); 1321N1 cells, human P2X3, Fluo8, agonist ATP at EC50
Procedure, shortened: as §1

Row | Compound | IC50 (human P2X2/3 receptors) [nM] | hP2X23/hP2X3* Selectivity (1321N1) (human P2X2/3 receptors) | IC50 (human P2X3 receptor [1]) [nM] | IC50 (human P2X3 receptor [2]) [nM] | IC50 (human P2X3 receptor [3]) [nM]
1 | CC(C)(C)c1cc2n(CC(=O)Nc3ccc(F)cn3)c3c(c(=O)n2n1)CN(C1CCC1)C3=O [Example 17] | > 18100 | >345 | 31 | 72 | 53
2 | CC(C)(C)c1cc2n(CC(=O)Nc3ccc(Cl)cn3)c3c(c(=O)n2n1)CN(C1CCC1)C3=O [Example 18] | 2500 | 20 | 69 | 106 | 124
3 | CC(C)(O)CN1Cc2c(n(CC(=O)Nc3ccc(F)cn3)c3cc(C(C)(C)C)nn3c2=O)C1=O [Example 32] | 12000 | 71 | 139 | 121 | 170
4 | CC(C)[C@H](C)N1Cc2c(n(CC(=O)Nc3ccc(Cl)cn3)c3cc(C(C)(C)C)nn3c2=O)C1=O [Example 12] | 8800 | 39 | 59 | 110 | 225
5 | COC[C@@H](C)N1Cc2c(n(CC(=O)Nc3ccc(F)cn3)c3cc(C(C)(C)C)nn3c2=O)C1=O [Example 43] | 6500 | 213 | 19 | 20 | 31
6 | CC(C)(C)c1cc2n(CC(=O)Nc3ccc(F)cn3)c3c(c(=O)n2n1)CN(C1CCCC1)C3=O [Example 26] | 2450 | 54 | 22 | 20 | 46
7 | Cc1ccc(NC(=O)Cn2c3c(c(=O)n4nc(C(F)(F)F)cc24)CN(C(C)C)C3=O)nc1 [Example 30] | > 21500 | >55 | 344 | 170 | 393
8 | CC(C)(C)c1cc2n(CC(=O)Nc3ccc(Cl)cn3)c3c(c(=O)n2n1)CN(C1COC1)C3=O [Example 48] | 8100 | 31 | 182 | 555 | 263
9 | CC(C)N1Cc2c(n(CC(=O)Nc3ccc(Cl)cn3)c3cc(C(C)(C)C)nn3c2=O)C1=O [Example 3] | 2850 | 78 | 32 | 147 | 37
10 | CC(C)N1Cc2c(n(CC(=O)Nc3ccccn3)c3cc(C(C)(C)C)nn3c2=O)C1=O [Example 2] | > 22000 | >119 | 219 | 135 | 185
11 | COC[C@@H](C)N1Cc2c(n(CC(=O)Nc3ccc(F)cn3)c3cc(C(C)C)nn3c2=O)C1=O [Example 44] | 8200 | 241 | 16 | 39 | 34
12 | CC(C)(C)c1cc2n(CC(=O)Nc3ccc(F)cn3)c3c(c(=O)n2n1)CN(CC1CCOCC1)C3=O [Example 28] | 12300 | 30 | 146 | 305 | 410
13 | COCCN1Cc2c(n(CC(=O)Nc3ccc(F)cn3)c3cc(C(C)(C)C)nn3c2=O)C1=O [Example 49] | 3900 | 119 | 23 | 62 | 33
14 | CC(C)(C)c1cc2n(CC(=O)Nc3ccc(F)cn3)c3c(c(=O)n2n1)CN(CC1CC1)C3=O [Example 13] | 5650 | 212 | 21 | 51 | 27
15 | COC[C@@H](C)N1Cc2c(n(CC(=O)Nc3ccc(F)cn3)c3cc(C)nn3c2=O)C1=O [Example 52] | > 23000 | >324 | 52 | 43 | 71
16 | CN(C)CCN1Cc2c(n(CC(=O)Nc3ccc(F)cn3)c3cc(C(C)(C)C)nn3c2=O)C1=O [Example 139, 2-{2-tert-butyl-6-[2-(dimethylamino)ethyl]-5,8-dioxo-5,6,7,8-tetrahydro-4H-pyrazolo[1,5-a]pyrrolo[3,4-d]pyrimidin-4-yl}-N-(5-fluoropyridin-2-yl)acetamide] | > 32000 | >80 | 237 | 420 | 400
17 | CC(C)c1cc2n(CC(=O)Nc3ccc(F)cn3)c3c(c(=O)n2n1)CN(C(C)C)C3=O [Example 7] | 8000 | 167 | 28 | 71 | 48
18 | CC(C)N1Cc2c(n(CC(=O)Nc3ccc(F)cn3)c3ccnn3c2=O)C1=O [Example 45] | > 32000 | >86 | 377 | 394 | 370
19 | COC[C@H](C)N1Cc2c(n(CC(=O)Nc3ccc(F)cn3)c3cc(C(F)(F)F)nn3c2=O)C1=O [Example 37] | > 32000 | >160 | 82 | 135 | 200
20 | CC(C)c1cc2n(CC(=O)Nc3ccc(Cl)cn3)c3c(c(=O)n2n1)CN(C(C)C)C3=O [Example 8] | 3650 | 76 | 50 | 51 | 48
21 | Cc1ccc(NC(=O)Cn2c3c(c(=O)n4nc(C(C)(C)C)cc24)CN(C2CCC2)C3=O)nc1 [Example 19] | 8050 | 11 | 379 | 430 | 740
22 | Cc1ccc(NC(=O)Cn2c3c(c(=O)n4nc(C(C)(C)C)cc24)CN(C(C)C)C3=O)nc1 [Example 4] | 9600 | 54 | 147 | 345 | 177
23 | CC(C)(C)c1cc2n(CC(=O)Nc3ccc(F)cn3)c3c(c(=O)n2n1)CN(C1CCOCC1)C3=O [Example 33] | > 21500 | >72 | 276 | 165 | 297
24 | COCC(C)N1Cc2c(n(CC(=O)Nc3ccc(F)cn3)c3cc(C(=O)N(C)C)nn3c2=O)C1=O (racemic) [Example 140, 4-{2-[(5-fluoropyridin-2-yl)amino]-2-oxoethyl}-6-[(±)-1-methoxypropan-2-yl]-N,N-dimethyl-5,8-dioxo-5,6,7,8-tetrahydro-4H-pyrazolo[1,5-a]pyrrolo[3,4-d]pyrimidine-2-carboxamide] | > 20900 | >183 | 57 | 55 | 115

From patent US11319324B2, “Pyrazolo-pyrrolo-pyrimidine-dione derivatives as P2X3 inhibitors” (Bayer Aktiengesellschaft, priority 2017, dated 2022)
